Entries after “also recorded” stand apart in the source; their conditions may differ.
Experiments:
[1] = system: mixed cortical and striatal neurons; assay: LDH assay (cell membrane integrity) in neuronal cell culture; assay type: cell-based
Method: Neuronal Cell Culture. Mixed cortical and striatal neurons fromembryonic day 17 male Sprague-Dawley rats (tissue obtained from NIH) were seeded into poly-D-lysine coated 96-well plates at density of 50,000 cells/well and initially cultured at 37° C., 5% CO2, in neurobasal medium (NB) with B27 supplement (Invitrogen) containing full strength of AOs to obtain highly enriched (95%) neurons. Since AOs, including vitamin E, vitamin E acetate, superoxide dismutase (SOD), catalase (CAT), and GSH, are additives to culture medium, reduction of AO concentration in culture medium provides an approach to determine the level of OS involvement in a neurotoxic process. In our study, the culture medium was replaced at a 50% ratio with NB plus B27 minus AOs twice at days 7 and 9 to set AO concentrations as 50% and 25%, respectively. At 16 days in vitro (d.i.v.), a fraction of the culture medium was harvested for lactate dehydrogenase (LDH) assay, and then AO concentration was reduced to 12.5% and cultured for a further 5 hours prior to ending the experiment.
(§1) Cell Insults and Treatments. Determination of concentration for each anticancer drug in our experiments was based on its reported concentration in human cerebral spinal fluid (CSF) in chemotherapy, literature report of its neurotoxicity in culture, and our preliminary in vitro experimental data. At 13 d.i.v., the neuronal cell cultures were insulted with 100 μM of MTX (M9929, Sigma), 25 μM of 5-FU (F6627, Sigma), or 3.5 μM of CDDP (sc-200896, Santa Cruz) for 3 days in absence or presence of PAN 811.Cl.H2O. For ROS examination, the neurons were insulted with both 100 μM of MTX and 25 μM of 5-FU by 15 d.i.v. PAN-811.Cl.H2O was added to cultures to final concentrations of 1.25, 2.5, 5, and 10 μM at the same time as addition of the anticancer drugs. For cancer cell lines, the cells were insulted by the second day of cell seeding with the same concentration of MTX, 5-FU, or CDDP as used in neuronal culture in the absence or presence of 10 μM PAN-811.Cl.H2O for another 3 days.
(§2) Quantitative Assays and Morphological Assessment. Cell membrane integrity and mitochondrial function of either neurons or cancer cells were measured with LDH and 3-(4,5-dimethylthiazol-2-yl)-5-(3-carboxymethoxyphenyl)-2-(4-sulfophenyl)-2H-tetrazolium [MTS] analyses, respectively. The latter has been used to quantify cell survival. For the LDH assay, a mixture of a 35 μL aliquot of culture supernatant and 17.5 μL of Mixed Substrate, Enzyme and Dye Solutions (Sigma) was incubated at room temperature (RT) for 30 minutes. For the MTS assay, 10 μL of MTS reagent (Promega) was added to a culture well containing neurons in 50 μL of medium. The preparations were incubated at 37° C. for 2 hours. The preparations for both assays were then spectrophotometrically measured at 490 nm using a 96-well plate reader (Mode 550, Bio-Rad). Neuronal cell death was morphologically determined based on the integrity of the cell soma and continuity of neuronal processes. The change in number of cancer cells was judged directly by cell density. Cells were photographed under an inverted phase contrast microscope (IX 70, Olympus) using 10× or 20× objective.
Data Analysis. Data were generated from 4-6 replicate wells, expressed as mean±standard deviation (SD), and statistically evaluated at a significance level of 1% with one factor ANOVA or Student's t-test by using software VASSARSTATS (http://vassarstats.net/) followed by the Tukey HSD test. Figure symbols are as follows: #, P<0.05, and ##, P<0.01, compared with control; *, P<0.05, and **, P<0.01, compared with the insulted group; §§, P<0.01, compared with PAN-811 treated group by Student's t-test.

[2] = system: human lung cancer cell line H460; assay: Cell density of H460 cells (phase contrast); assay type: cell-based
Method: Cancer Cell Culture. The mouse liver cancer cell line BNLT3 (gift of Dr. Jack Wands, Brown University) and the human lung cancer cell line H460 (ATCC) were seeded into 96-well plates at a density of 4,000 cells/well and cultured at 37° C., 5% CO2, in DMEM (11965, Gibco) supplemented with 10% fetal bovine serum, 20 mM HEPES, 1 mM sodium pyruvate, and […] gentamycin (all reagents came from Gibco).
as §1, §2

NC(=S)N/N=C/c1ncccc1N [PAN-811, 3-aminopyridine-2-carboxaldehyde thiosemicarbazone]
LDH release in CDDP-insulted cultures ([1]; 5 μM PAN-811, 3.5 μM CDDP): fully blocked | LDH release in 5-FU-insulted cultures ([1]; 5 μM PAN-811, 25 μM 5-FU): fully blocked | LDH release in MTX-insulted cultures ([1]; 5 μM PAN-811, 100 μM MTX): fully blocked | MTX/5-FU-elicited LDH increase ([1]; 10 μM PAN-811, 100 μM MTX and 25 μM 5-FU): fully inhibited | suppression of MTX/5-FU-elicited LDH release, concentration dependence ([1]; PAN-811 1.25 to 10 μM, 100 μM MTX and 25 μM 5-FU): concentration-dependent suppression | LDH increase caused by each anticancer drug, dose dependence ([1]; neurons, MTX 100 μM, 5-FU 25 μM or CDDP 3.5 μM): dose-dependently suppressed | cell density, cotreatment with CDDP ([2]; 3.5 μM CDDP and 10 μM PAN-811, 3 days): greatly decreased the cell density | cell density, cotreatment with 5-FU ([2]; 25 μM 5-FU and 10 μM PAN-811, 3 days): robustly decreased the cell density | cell density, cotreatment with MTX ([2]; 100 μM MTX and 10 μM PAN-811, 3 days): robustly decreased the cell density | cell density ([2]; each agent alone, 3 days: MTX 100 μM, 5-FU 25 μM, CDDP 3.5 μM, PAN-811 10 μM): robustly decreased the cell density; also recorded: greatly decreased the cell density

Source: US10525044B2, “Treatment for chemotherapy-induced peripheral neuropathy” (priority 2013, dated 2020)
